#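 Test compounds were applied to cells in 96-well plates for 48 hours at 5 doses. GI50 marks 50% less growth. TGI: total growth inhibition.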
# Tests used:
# Assay in all cases: DTP human tumour cell line panel, 48 h
# [1] = test system: COLO 205 colon
# [2] = test system: SF-268 CNS
# [3] = test system: OVCAR-5 ovarian
# [4] = test system: IGROV1 ovarian
# [5] = test system: UACC-257 melanoma
# [6] = test system: OVCAR-3 ovarian
# [7] = test system: SN12C renal
# [8] = test system: HCC-2998 colon
# [9] = test system: T-47D breast
# [10] = test system: UACC-62 melanoma
# [11] = test system: MOLT-4 leukemia
# [12] = test system: SK-MEL-5 melanoma
# [13] = test system: SF-295 CNS
# [14] = test system: 786-0 renal
# [15] = test system: M14 melanoma
# [16] = test system: SK-OV-3 ovarian
# [17] = test system: SW-620 colon
# [18] = test system: OVCAR-8 ovarian
# [19] = test system: NCI/ADR-RES ovarian
# [20] = test system: U251 CNS
# [21] = test system: A549 NSCLC
# [22] = test system: HOP-92 NSCLC
# [23] = test system: A498 renal
# [24] = test system: SNB-19 CNS
# [25] = test system: TK-10 renal
# [26] = test system: SK-MEL-28 melanoma
# [27] = test system: NCI-H460 lung
# [28] = test system: BT-549 breast
# [29] = test system: LOX IMVI melanoma
# [30] = test system: CAKI-1 renal
# [31] = test system: MDA-MB-231 breast
# [32] = test system: CCRF-CEM leukemia
# [33] = test system: MDA-MB-468 breast
# [34] = test system: DU-145 prostate
# [35] = test system: NCI-H522 lung
# [36] = test system: OVCAR-4 ovarian
# [37] = test system: HOP-62 NSCLC
# [38] = test system: EKVX NSCLC
# [39] = test system: UO-31 renal
# [40] = test system: RXF 393 renal
# [41] = test system: NCI-H226 lung
# [42] = test system: HS 578T breast
# [43] = test system: KM12 colon
# [44] = test system: HL-60(TB) leukemia
# [45] = test system: SK-MEL-2 melanoma
# [46] = test system: RPMI-8226 leukemia
# [47] = test system: ACHN renal
# [48] = test system: PC-3 prostate
# [49] = test system: SNB-75 CNS
# [50] = test system: NCI-H23 lung
# [51] = test system: HCT-116 colon
# [52] = test system: K-562 leukemia
# [53] = test system: SF-539 CNS
# [54] = test system: MCF7 breast
# [55] = test system: HCT-15 colon
# [56] = test system: MDA-MB-435
# [57] = test system: MALME-3M melanoma
# [58] = test system: HT29 colon
smiles,measurement,setting,value
Cn1cc(NC(=O)c2cc(NC(=O)c3ccc(/C=C/c4ccccc4)cc3)cn2C)cc1C(=O)NCCCN1CCOCC1,GI50,[1],> 28 µM
same,TGI,[1],> 28 µM
same,GI50,[2],21.5 µM
same,TGI,[2],> 28 µM
same,GI50,[3],> 28 µM
same,TGI,[3],> 28 µM
same,GI50,[4],> 28 µM
same,TGI,[4],> 28 µM
same,GI50,[5],19.2 µM
same,TGI,[5],> 28 µM
same,GI50,[6],6.82 µM
same,TGI,[6],> 28 µM
same,GI50,[7],5.28 µM
same,TGI,[7],> 28 µM
same,GI50,[8],16.6 µM
same,TGI,[8],> 28 µM
same,GI50,[9],5.59 µM
same,TGI,[9],> 28 µM
same,GI50,[10],21.2 µM
same,TGI,[10],> 28 µM
same,GI50,[11],7.96 µM
same,TGI,[11],> 28 µM
same,GI50,[12],14 µM
same,TGI,[12],> 28 µM
same,GI50,[13],17.8 µM
same,TGI,[13],> 28 µM
same,GI50,[14],8.59 µM
same,TGI,[14],> 28 µM
same,GI50,[15],14.7 µM
same,TGI,[15],> 28 µM
same,GI50,[16],> 28 µM
same,TGI,[16],> 28 µM
same,GI50,[17],6.89 µM
same,TGI,[17],18.7 µM
same,GI50,[18],7.21 µM
same,TGI,[18],> 28 µM
same,GI50,[19],7.31 µM
same,TGI,[19],24.2 µM
same,GI50,[20],10.5 µM
same,TGI,[20],> 28 µM
same,GI50,[21],> 28 µM
same,TGI,[21],> 28 µM
same,GI50,[22],3.15 µM
same,TGI,[22],14.9 µM
same,GI50,[23],> 28 µM
same,TGI,[23],> 28 µM
same,GI50,[24],> 28 µM
same,TGI,[24],> 28 µM
same,GI50,[25],15.1 µM
same,TGI,[25],> 28 µM
same,GI50,[26],> 28 µM
same,TGI,[26],> 28 µM
same,GI50,[27],9.62 µM
same,TGI,[27],> 28 µM
same,GI50,[28],4.84 µM
same,TGI,[28],18.4 µM
same,GI50,[29],4.59 µM
same,TGI,[29],9.32 µM
same,GI50,[30],15.3 µM
same,TGI,[30],> 28 µM
same,GI50,[31],9.18 µM
same,TGI,[31],> 28 µM
same,GI50,[32],5.74 µM
same,TGI,[32],> 28 µM
same,GI50,[33],5.88 µM
same,TGI,[33],18.5 µM
same,GI50,[34],10.1 µM
same,TGI,[34],> 28 µM
same,GI50,[35],6.56 µM
same,TGI,[35],25.2 µM
same,GI50,[36],> 28 µM
same,TGI,[36],> 28 µM
same,GI50,[37],9.43 µM
same,TGI,[37],> 28 µM
same,GI50,[38],16.6 µM
same,TGI,[38],> 28 µM
same,GI50,[39],15.2 µM
same,TGI,[39],> 28 µM
same,GI50,[40],2.08 µM
same,TGI,[40],18 µM
same,GI50,[41],24.1 µM
same,TGI,[41],> 28 µM
same,GI50,[42],6.14 µM
same,TGI,[42],> 28 µM
same,GI50,[43],8.07 µM
same,TGI,[43],> 28 µM
same,GI50,[44],7.49 µM
same,TGI,[44],> 28 µM
same,GI50,[45],4.94 µM
same,TGI,[45],16.3 µM
same,GI50,[46],3.35 µM
same,TGI,[46],> 28 µM
same,GI50,[47],18.6 µM
same,TGI,[47],> 28 µM
same,GI50,[48],13 µM
same,TGI,[48],> 28 µM
same,GI50,[49],4.42 µM
same,TGI,[49],26.3 µM
same,GI50,[50],13.4 µM
same,TGI,[50],> 28 µM
same,GI50,[51],7.39 µM
same,TGI,[51],> 28 µM
same,GI50,[52],4.79 µM
same,TGI,[52],16.1 µM
same,GI50,[53],5.8 µM
same,TGI,[53],16.5 µM
same,GI50,[54],3.57 µM
same,TGI,[54],> 28 µM
same,GI50,[55],7.41 µM
same,TGI,[55],> 28 µM
same,GI50,[56],8.59 µM
same,TGI,[56],> 28 µM
same,GI50,[57],13.8 µM
same,TGI,[57],> 28 µM
same,GI50,[58],4.85 µM
same,TGI,[58],19.6 µM

# From PubChem BioAssay (NCI)
